From PubChem BioAssay AID248 (DTP/NCI, 2004)
“And” between values parts separate entries of the source, which are not always exact repeats. Equal entries are not always repeated. Inconclusive results and toxic doses are left out. Rule as the data show it: active = T/C of 150% or more; inactive = T/C below 125%.

Test system: L1210 leukemia ip in BDF1 mice, survival T/C
Test: NCI In Vivo Anticancer Drug Screen. Data for tumor model L1210 Leukemia (intraperitoneal) in B6D2F1 (BDF1) mice
Settings: endpoint: mean survival time, higher = longer survival
In short: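 Read-out is survival time, reported as the treated-group measurement over the vehicle-control measurement.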

[1] = dose: 25.0 mg/kg/injection, schedule: Q01DX009 (ip), vehicle: saline
[2] = dose: 25.0 mg/kg/injection, schedule: Q04DX003 (ip), vehicle: saline
[3] = dose: 50.0 mg/kg/injection, schedule: Q01DX009 (ip), vehicle: saline
[4] = dose: 50.0 mg/kg/injection, schedule: Q04DX003 (ip), vehicle: saline
[5] = dose: 100.0 mg/kg/injection, schedule: Q01DX009 (ip), vehicle: saline
[6] = dose: 100.0 mg/kg/injection, schedule: Q04DX003 (ip), vehicle: saline
[7] = dose: 200.0 mg/kg/injection, schedule: Q01DX009 (ip), vehicle: saline
[8] = dose: 200.0 mg/kg/injection, schedule: Q04DX003 (ip), vehicle: saline
[9] = dose: 100.0 mg/kg/injection, schedule: Q04DX003 (ip), vehicle: Klucel (hydroxypropylcellulose) (HPC)
[10] = dose: 100.0 mg/kg/injection, schedule: Q01DX009 (ip), vehicle: Klucel (hydroxypropylcellulose) (HPC)
[11] = dose: 400.0 mg/kg/injection, schedule: Q04DX003 (ip), vehicle: saline
[12] = dose: 100.0 mg/kg/injection, schedule: Q01DX001 (ip), vehicle: saline with Tween-80
[13] = dose: 200.0 mg/kg/injection, schedule: Q01DX001 (ip), vehicle: saline with Tween-80
[14] = dose: 100.0 mg/kg/injection, schedule: Q01DX001 (ip), vehicle: carboxymethylcellulose (CMC)
[15] = dose: 200.0 mg/kg/injection, schedule: Q01DX001 (ip), vehicle: carboxymethylcellulose (CMC)
[16] = dose: 400.0 mg/kg/injection, schedule: Q01DX001 (ip), vehicle: carboxymethylcellulose (CMC)
[17] = dose: 100.0 mg/kg/injection, schedule: Q01DX001 (ip), vehicle: Klucel (hydroxypropylcellulose) (HPC)
[18] = dose: 200.0 mg/kg/injection, schedule: Q01DX001 (ip), vehicle: Klucel (hydroxypropylcellulose) (HPC)
[19] = dose: 400.0 mg/kg/injection, schedule: Q01DX001 (ip), vehicle: Klucel (hydroxypropylcellulose) (HPC)
[20] = dose: 100.0 mg/kg/injection, schedule: Q01DX001 (ip), vehicle: saline
[21] = dose: 200.0 mg/kg/injection, schedule: Q04DX003 (ip), vehicle: Klucel (hydroxypropylcellulose) (HPC)
[22] = dose: 400.0 mg/kg/injection, schedule: Q04DX003 (ip), vehicle: Klucel (hydroxypropylcellulose) (HPC)

Measured: T/C

CC12CCC(=O)C=C1CC(Sc1ccc(N(CCCl)CCCl)cc1)C1C2CCC2(C)C(O)CCC12 (stereo not given)
inactive: dose: 100.0 mg/kg/injection, schedule: Q01DX001 (sc), vehicle: steriod suspending solution 108 % of control | dose: 200.0 mg/kg/injection, schedule: Q01DX001 (sc), vehicle: steriod suspending solution 108 % of control | dose: 400.0 mg/kg/injection, schedule: Q01DX001 (sc), vehicle: steriod suspending solution 100 % of control

CCOP(=O)(OCC)C(c1ccccc1)C(c1ccccc1)c1ccccc1 (stereo not given)
inactive: dose: 100.0 mg/kg/injection, schedule: Q04DX003 (ip), vehicle: other 97 % of control | dose: 200.0 mg/kg/injection, schedule: Q04DX003 (ip), vehicle: other 93 % of control | dose: 400.0 mg/kg/injection, schedule: Q04DX003 (ip), vehicle: other 101 % of control

CN(C)CCOc1ccccc1Cc1ccccc1
inactive: dose: 12.5 mg/kg/injection, schedule: Q01DX009 (ip), vehicle: saline 96 % of control | [1] 97 % of control | [2] 107 % of control | [3] 90 % of control | [4] 98 % of control | [5] 103 % of control | [6] 107 % of control | [7] 110 % of control | [8] 107 % of control

NC(N)=NC(N)=NCCCCc1ccccc1
inactive: dose: 25.0 mg/kg/injection, schedule: Q04DX003 (ip), vehicle: Klucel (hydroxypropylcellulose) (HPC) 95 % of control | dose: 50.0 mg/kg/injection, schedule: Q04DX003 (ip), vehicle: Klucel (hydroxypropylcellulose) (HPC) 109 % of control | [9] 101 % of control

CCCCCCCCCCNCCCCNCCCCCCCCCC
inactive: dose: 1.56 mg/kg/injection, schedule: Q01DX009 (ip), vehicle: Klucel (hydroxypropylcellulose) (HPC) 92 % of control | dose: 3.12 mg/kg/injection, schedule: Q01DX009 (ip), vehicle: Klucel (hydroxypropylcellulose) (HPC) 87 % of control | dose: 6.25 mg/kg/injection, schedule: Q01DX009 (ip), vehicle: Klucel (hydroxypropylcellulose) (HPC) 92 % of control and 93 % of control

c1ccc([P+](Cc2nc3ccccc3[nH]2)(c2ccccc2)c2ccccc2)cc1
inactive: [1] 92 % of control | [2] 97 % of control | dose: 50.0 mg/kg/injection, schedule: Q01DX009 (ip), vehicle: Klucel (hydroxypropylcellulose) (HPC) 102 % of control | [4] 92 % of control | [10] 100 % of control | [6] 94 % of control

O=C(O)CN(CC(=O)O)c1ccc(/C=C/c2ccc(N(CC(=O)O)CC(=O)O)c(S(=O)(=O)O)c2)cc1S(=O)(=O)O
inactive: [5] 100 % of control | [6] 112 % of control | [7] 105 % of control | [8] 100 % of control | dose: 400.0 mg/kg/injection, schedule: Q01DX009 (ip), vehicle: saline 103 % of control | [11] 100 % of control

Cc1c(O)c2cccc(-c3ccccc3)c2oc1=O
inactive: [6] 87 % of control | [8] 91 % of control | [11] 109 % of control

c1ccc(-n2ncc3ccccc32)cc1
inactive: dose: 50.0 mg/kg/injection, schedule: Q01DX001 (ip), vehicle: saline with Tween-80 100 % of control | [12] 100 % of control | [13] 96 % of control

Clc1nn2cnnc2c2ccccc12
inactive: dose: 20.0 mg/kg/injection, schedule: Q04DX003 (ip), vehicle: saline 110 % of control

c1ccc(C2OCCOC2c2ccccc2)cc1 (stereo not given)
inactive: [14] 101 % of control | [15] 103 % of control | [16] 101 % of control

O=S(=O)(c1ccccc1)N1CN2CN(C1)CN(S(=O)(=O)c1ccccc1)C2
inactive: dose: 100.0 mg/kg/injection, schedule: Q04DX002 (ip), vehicle: Klucel (hydroxypropylcellulose) (HPC) 103 % of control | dose: 200.0 mg/kg/injection, schedule: Q04DX002 (ip), vehicle: Klucel (hydroxypropylcellulose) (HPC) 106 % of control | dose: 400.0 mg/kg/injection, schedule: Q04DX002 (ip), vehicle: Klucel (hydroxypropylcellulose) (HPC) 89 % of control

COc1cc(N)ccc1C(=O)NC(CCC(=O)O)C(=O)O (stereo not given)
inactive: [17] 103 % of control | [18] 100 % of control | [19] 103 % of control

COc1ccccc1CN1CCCN(Cc2ccccc2OC)C1c1ccc(N(CCCl)CCCl)cc1
inactive: dose: 50.0 mg/kg/injection, schedule: Q01DX001 (ip), vehicle: carboxymethylcellulose (CMC) 115 % of control | [14] 104 % of control | [15] 104 % of control | [16] 104 % of control

COc1ccc2c3c1OC1C(O)C=CC4C(C2)N(C)CCC341 (stereo not given)
inactive: [20] 98 % of control

CCOC(=S)Nc1ccc(S(=O)(=O)c2ccc(NC(=S)OCC)cc2)cc1
inactive: [20] 96 % of control | dose: 200.0 mg/kg/injection, schedule: Q01DX001 (ip), vehicle: saline 92 % of control | dose: 400.0 mg/kg/injection, schedule: Q01DX001 (ip), vehicle: saline 98 % of control

O=C(NCCCl)Nc1cccc2cccnc12
inactive: [10] 100 % of control | [9] 100 % of control | dose: 200.0 mg/kg/injection, schedule: Q01DX009 (ip), vehicle: Klucel (hydroxypropylcellulose) (HPC) 98 % of control | [21] 102 % of control | dose: 400.0 mg/kg/injection, schedule: Q01DX009 (ip), vehicle: Klucel (hydroxypropylcellulose) (HPC) 98 % of control | [22] 94 % of control

c1ccc2c(c1)CC1CCCCN1C2 (stereo not given)
inactive: dose: 12.5 mg/kg/injection, schedule: Q01DX001 (ip), vehicle: Klucel (hydroxypropylcellulose) (HPC) 93 % of control | dose: 25.0 mg/kg/injection, schedule: Q01DX001 (ip), vehicle: Klucel (hydroxypropylcellulose) (HPC) 98 % of control | [1] 96 % of control | dose: 50.0 mg/kg/injection, schedule: Q01DX001 (ip), vehicle: Klucel (hydroxypropylcellulose) (HPC) 93 % of control | [3] 106 % of control | [6] 88 % of control

CC(=O)NC1C(CO)OC(n2cnc3c(N)nc(Cl)nc32)C1O (stereo not given)
inactive: [17] 94 % of control | [12] 105 % of control | [18] 96 % of control | [13] 107 % of control | [19] 91 % of control | dose: 400.0 mg/kg/injection, schedule: Q01DX001 (ip), vehicle: saline with Tween-80 100 % of control

Nc1ccc2c(ccc3ccc4ccccc4c32)c1
inactive: dose: 75.0 mg/kg/injection, schedule: Q01DX001 (ip), vehicle: carboxymethylcellulose (CMC) 97 % of control

O=S(=O)(CCCl)c1ccccc1
inactive: [9] 103 % of control | dose: 100.0 mg/kg/injection, schedule: Q04DX003 (ip), vehicle: saline with Tween-80 92 % of control | [21] 97 % of control | dose: 200.0 mg/kg/injection, schedule: Q04DX003 (ip), vehicle: saline with Tween-80 92 % of control | [22] 94 % of control | dose: 400.0 mg/kg/injection, schedule: Q04DX003 (ip), vehicle: saline with Tween-80 97 % of control

CC(C)(C)NS(=O)(=O)c1ccc(Cl)c([N+](=O)[O-])c1
inactive: [9] 95 % of control | [21] 93 % of control | [22] 90 % of control
